# Peptide text beside a SMILES is read from it.
# Tests used:
# E. coli [1] = assay: PI uptake assay, flow cytometry; format: cell-based; conditions: 4× MIC, 2 h
# Method: (§1) E. coli were mixed with different concentrations of MSI-1, incubated for 2 h, resuspended by PI solution (20 μg/ml), and ultimately subjected to flow cytometry for PI uptake assay. Calcein-loaded liposomes were prepared to imitate bacterial membrane. Serially diluted peptide was added into liposomes (1:1, v:v) after obtaining the fluorescence intensity at λex/λem=490/520 nm. Once MSI-1 addition, fluorescence intensity was detected at 0, 3, 5, 10, 15 and 20 min. Calcein release rate was calculated as previously described. To observe bacterial morphology, E. coli treated with MSI-1 (32 μg/ml) or PBS for 2 h was collected, fixed by 2.5% glutaraldehyde and subjected to scanning electron microscopy (SEM) assay (SUI510, Hitachi, Japan). In addition, E. coli were resuspended in reaction buffer (60 mM Na2HPO4^. 7H2O, 40 mM NaH2PO4^. H2O, 10 mM KCl, 1 mM MgSO4.7H2O, 0.27% 2-Mercaptoethanol), incubated with ONPG (2.5 mg/ml) and MSI-1 for 2 h. Bacteria envelope integrity was calculated by the percentage of O-nitrophenol production.
# [2] = test system: penicillin resistant-E. coli isolates; assay: Acute systemic E. coli infection in mice; format: in vivo, BALB/c mice; conditions: for survival rate enhanced compared with the model group: doses 10, 5 and 2.5 mg/kg
# Method: BALB/c mice (5-6 weeks) were purchased from the Laboratory Animal Center of Yangzhou University (Yangzhou, Jiangsu, China) and intraperitoneally (ip) injected with 500 μl (5× 10^8 CFU/ml) of penicillin resistant-E. coli isolates. Mice in MSI-1 treated groups (10, 5 and 2.5 mg/kg, n=16/group) and polymyxin treated group (5 mg/kg) were administered after 2 h post bacterial inoculation. After 12 h, six mice in each group were anesthetized with pentobarbital sodium (50 mg/kg body weight, i.p) and euthanized by cervical dislocation to count bacterial colonies in blood, lung, spleen, kidney and liver. Lung homogenates were collected for Gram staining. Moreover, serum TNF-α and IL-6 were measured by ELISA kits. The procedure of H&E staining for mouse lung was adapted from a published report. The survival and weight of other mice were monitored daily up to 7 days.
# E. coli genomic DNA = assay: Gel retardation assay, DNA binding; conditions: 15 min, 1% agarose gel
# Method: Bacterial genomic DNA was obtained by a BacteriaGen DNA Kit and quantified by a Thermo Scientific NanoDrop™ 2000c Spectrophotometer. Bacterial genomic DNA samples were incubated with isovolumetric MSI-1 at room temperature for 15 min. The gel retardation assay for DNA shift was performed by 1% w/v agarose gel (pre-stained by SYBR Green I) electrophoresis. In UV spectroscopic study, different concentrations of peptide were titrated into genomic DNA (0.5 μg/ml). After 15 min to equilibrate, the UV spectra for DNA and MSI-1-DNA complex were recorded at wavelength range of 230-350 nm. In addition, DNA dissolved in Tris-HCl (pH 7.4, CDNA=0.1 mg/ml) was mixed with EB solution (5 μM). After 10 min incubation in the dark, the EB-DNA mixture was added with different concentrations of MSI-1. Thirty minutes later, the fluorescence spectra were recorded at excitation wavelength 535 nm to measure the competitive binding of MSI-1 and EB with bacterial DNA. […] Secondary structure change of E. coli DNA was analyzed. Moreover, the intracellular changes in E. coli morphology was observed by a JEOL 1230 transmission electron microscopy (TEM) after 2 h coincubation with MSI-1.
# pepsin = pepsin (Sus scrofa, UniProt P00791); conditions: peptide:protease 300:1, 0.1 M NH4HCO3 pH 8.2, room temperature, HPLC; peak time shifted from 6.187 to 6.792 min (0.5 h)
# Source text: Aliquots of the mixture were extracted periodically and diluted with water/acetonitrile (3:2, v:v) containing 2% TFA for HPLC detection or for antibacterial activity assay [18].
# E. coli [3] = assay: ONPG assay, release of cytoplasmic β-galactosidase; format: cell-based; conditions: 2 h
# Method: as §1
# Plasma stability = format: in vitro ADME, mouse; conditions: for antibacterial activities after plasma incubation: turbidimetry
# Source text: At indicated time points, samples were denatured with equal volumes of 6 M urea and subjected to HPLC analysis or antibacterial activity evaluation.
# G- and G+ bacteria = assay: Antimicrobial activity, summary over the strains; format: cell-based; conditions: MIC expressed in μM, compared with IC50 on eukaryotic cells
# Method: A standard micro-broth serial dilution assay was used to measure MIC of peptides. MIC was obtained by a microplate reader at 600 nm. MBC was determined as previously described.
# [4] = Calcein release from liposomes; conditions: 4× MIC
# Method: as §1
# [5] = test system: Penicillin-resistant E. coli; assay: Local E. coli infection in scalded mouse model; format: in vivo, mice; conditions: for subeschar colonies reduced to: topical once a day
# Method: To further investigate whether MSI-1 could protect from bacterial infection of the skin, mice were anesthetized with pentobarbital sodium (50 mg/kg, i.p) and shaved on the dorsal surfaces. The depilated skin was secured with 2-cm-diameter plastic containers that filled up with boiling water at contact time 10 s. Afterwards, a full-thickness wound (2 cm in diameter) was cut on the burned skin of each mouse. Penicillin-resistant E. coli suspension (100 µl, 1× 10^10 CFU/ml) was slowly inoculated over wound with a pipette tip, and a gentle stream of air was aimed over the inoculation site until skin appeared wet but absent of any standing volume from the inoculum suspension. Two hours later, vehicle (3% CMC-Na), MSI-1 or polymyxin, which was suspended in sterile CMC-Na (3%) in PBS at concentration of 10, 5, 2.5 mg/ml (MSI-1) or 5 mg/ml (polymyxin), was inoculated on the same area with a pipette tip, 1 ml/kg, once a day (n=15 per group). Mice were fed in cages individually to avoid cross infection and were treated daily for 7 consecutive days. At 3rd and 7th days, cutaneous wound healing and bacteria counts in skin lesion were measured. Moreover, 12 h after the last treatment, blood samples were collected from the retro-orbital venous plexus under anesthesia (pentobarbital sodium, 50 mg/kg). Finally, all animals were euthanized by cervical dislocation to collect the lung samples for counting live bacteria. The contents of TNF-α and IL-6 in skin homogenates and serum were measured by ELISA. Skin lesion was fixed by 4% paraformaldehyde for H&E staining. The expression levels of EGF and VEGF in skin lesion were examined by immunohistochemistry. In addition, the wound scratch assay was also performed on HaCaT cells to further test whether MSI-1 improved wound healing by promoting keratinocyte migration.
# Sequence of pepsin (P00791 60-385): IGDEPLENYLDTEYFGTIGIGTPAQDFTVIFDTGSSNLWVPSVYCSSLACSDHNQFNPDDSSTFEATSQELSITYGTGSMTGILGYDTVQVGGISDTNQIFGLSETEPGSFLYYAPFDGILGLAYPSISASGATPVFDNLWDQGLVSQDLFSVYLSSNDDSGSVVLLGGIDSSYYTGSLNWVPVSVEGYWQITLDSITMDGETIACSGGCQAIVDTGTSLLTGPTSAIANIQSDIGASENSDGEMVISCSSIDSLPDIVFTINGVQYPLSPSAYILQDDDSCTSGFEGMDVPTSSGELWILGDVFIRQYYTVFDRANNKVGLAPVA
compound,measurement,setting,value
CC[C@H](C)[C@H](NC(=O)CN)C(=O)N[C@@H](Cc1c[nH]c2ccccc12)C(=O)N[C@@H](CCCCN)C(=O)N[C@@H](Cc1ccccc1)C(=O)N[C@@H](CC(C)C)C(=O)N[C@@H](CCCCN)C(=O)N[C@@H](CCCCN)C(=O)N[C@@H](C)C(=O)N[C@@H](CCCCN)C(=O)N[C@@H](CCCCN)C(=O)N[C@@H](Cc1ccccc1)C(=O)N[C@@H](Cc1c[nH]c2ccccc12)C(=O)N[C@@H](CCCCN)C(N)=O [MSI-1] (H-GIWKFLKKAKKFWK-NH2),PI-positive rate,E. coli [1],80.4%
same,reduction in CFU (blood and organs),"[2]; 10 mg/kg, 12 h",approximately 2 log unit
same,decreased rates of serum IL-6 and TNF-α,"[2]; 10 mg/kg, 12 h post-infection, ELISA",70%~80%
same,body weight,"[2]; 7 days, polymyxin 5 mg/kg",marked weight maintenance effect
same,survival rate enhanced compared with the model group,"[2]; first of three values, given 2 h post inoculation, 7 days",80%
same,survival rate enhanced compared with the model group,"[2]; second of three values, 7 days",50%
same,survival rate enhanced compared with the model group,"[2]; third of three values, 7 days",30%
same,dose at which the peptide bound to genomic DNA,E. coli genomic DNA; 1/4× MIC,2 µg/mL
same,peptide concentration at which electrophoretic movement of DNA was completely inhibited,E. coli genomic DNA,higher than 4 μg/ml
same,stability in pepsin solution,pepsin,some peptide hydrolysates might be produced
same,"activity in the supernatants (β-galactosidase release, relative to sonicated bacteria)",E. coli [3]; 2× MIC,36.7%
same,"activity in the supernatants (β-galactosidase release, relative to sonicated bacteria)",E. coli [3]; 4× MIC,80.7%
same,"remaining at 0.5 h, 1.6 mg/ml","Plasma stability; 20% fresh mouse plasma, 37 °C, 0.5 h, HPLC, read-out: remaining peptide",~77%
same,remaining peptide,"Plasma stability; 20% fresh mouse plasma, 37 °C, 2 h, HPLC",~67.5%
same,antibacterial activities after plasma incubation,"Plasma stability; 20% fresh mouse plasma, 0.5 h",97.2%
same,antibacterial activities after plasma incubation,"Plasma stability; 20% fresh mouse plasma, 2 h",60.7%
same,bacteriostatic activity,"Plasma stability; either mouse plasma or serum, post 2 h coincubation (summary in the discussion)",approximately 50%
same,"remaining at 2 h, 1.6 mg/ml","Plasma stability; fresh mouse plasma or serum (one summary value for both), either mouse plasma or serum, post 2 h coincubation (summary in the discussion), read-out: remaining peptide",60%
same,effective antimicrobial concentration in vitro,G- and G+ bacteria,4.4 to 8.8 µM
same,leakage of Calcein,[4],over 80%
same,TNF-α and IL-6 in skin lesion homogenate,"[5]; 10 mg/kg, 7th day, ELISA",strongly reduced
same,subeschar colonies reduced to,"[5]; 10 mg/kg, after 3 days",38.6%
same,subeschar colonies reduced to,"[5]; 10 mg/kg, after 7 days",49%
same,wound closure,"[5]; 3rd and 7th days, especially at 10 mg/kg",significantly improved wound closure
same,bacterial colonies in the lung and blood,"[5]; 7th day, MSI-1 5 and 10 mg/kg, polymyxin B, p<0.01 vs the model group",obviously decreased
same,expression of EGF and VEGF in the burned and infected skin,[5]; immunohistochemistry,no obvious effect

# From paper PMC6956804, “Potent antibacterial activity of MSI-1 derived from the magainin 2 peptide against drug-resistant bacteria” (Theranostics, 2020)
